Experiment: Human HepG2 cell viability assay in 384 well format
Type: toxicity, cell-based
Set-up: dose 125 nL, time 70.5 hour; cytotoxicity at 70.5 h: concentration not given beside the values
Details: HepG2 cells, read-out: Inhibition

| Compound | cytotoxicity at 70.5 h |
| --- | --- |
| N#Cc1cccnc1N1CCN(C(=O)c2cccs2)CC1 | -3% |
| CN(c1ccc(F)c(F)c1)S(=O)(=O)c1cc2c(c(C(=O)O)c1)OCCO2 | -7.51% |
| O=S(=O)(Cc1ccccc1)c1nnc(N2CCCC2)s1 | -2.76% |
| Cc1nc(C2CCCN(C(=O)C3=NN(C(C)C)C(=O)CC3)C2)no1 (stereo unspecified) | -9.12% |
| O=S(=O)(Cc1ccccc1)c1nnc(N2CCOCC2)s1 | -9.13% |
| CN(CC1CCC1)C(=O)Nc1cccnc1-n1cncn1 | -12.4% |
| CC(C)Oc1ncc(C(=O)N2CCc3ccc(O)cc3C2)cc1Cl | 15.8% |
| O=C(Nc1cccnc1-n1cncn1)N(C1CCCC1)C1CC1 | -7.6% |
| Cc1nnc(C(C)Nc2cccc(COCCc3ccccc3)c2)o1 (stereo unspecified) | -8.73% |
| CN1CCC(C(=O)N2CCCN(c3cccnn3)CC2)C1 (stereo unspecified) | -14.6% |
| CC(=O)NCCCSC1CCN(c2c(F)cccc2F)C1=O (stereo unspecified) | 22.9% |
| CC(=O)NCCCSC1CCCN(c2ccccc2F)C1=O (stereo unspecified) | -6.35% |
| Cc1ccnc(NCc2cccc(OCCN3CCOCC3)c2)n1 | 32.7% |
| N#Cc1cn(CCCN2CCc3ccccc3C2)c(=O)[nH]c1=O | -5.98% |
| CS(=O)(=O)Nc1cccc(CNC(=O)CCC(=O)c2cccs2)c1 | -3.24% |
| Cc1cccnc1NC(=O)C1CCCN(c2cccc(C(F)(F)F)n2)C1 (stereo unspecified) | -0.942% |
| O=C(NC1CC1)C1CCN(c2cccc(C(F)(F)F)n2)CC1 | -1.37% |
| CC(=O)NC1CCCN(Cc2ccc(OCc3ccccn3)cc2)C1 (stereo unspecified) | -6.3% |
| O=C(CN1CCS(=O)(=O)CC1)NC1CCCOc2ccccc21 (stereo unspecified) | -3.91% |
| CC(C(=O)N1CCC(Cc2ccc(F)cc2)CC1)n1ccnc1 (stereo unspecified) | 20.4% |
| O=C1NCC(C(=O)N(Cc2cccc(Br)c2)C2CC2)N1 (stereo unspecified) | 26.3% |
| O=C(CCn1ccc2ccccc21)N1CCC(Nc2cccnn2)CC1 | -3.47% |

| Compound | cytotoxicity at 70.5 h |
| --- | --- |
| CCOCC(=O)N(Cc1ccccn1)Cc1ccccc1C | -4.52% |
| CS(=O)(=O)Cc1ccc(Cl)cc1NCc1ccccc1F | 27.6% |
| Cc1ccccc1CN(Cc1ccccn1)C(=O)CNS(C)(=O)=O | 25.2% |
| COC(=O)c1ccc(F)c(Cn2nc(C)cc2C)c1 | 4.73% |
| O=c1[nH]nc(SCC2CCCCO2)n1C1CC1 (stereo unspecified) | 28.8% |
| CSCC(=O)N(Cc1ccccn1)Cc1ccccc1C | -4.08% |
| Clc1cncc(NCc2cccc(OCCN3CCOCC3)c2)n1 | -8.21% |
| CC(CS(C)(=O)=O)N(C(=O)c1ccc(Cl)s1)C1CC1 (stereo unspecified) | -9.46% |
| CC(c1ccco1)N(C(=O)NCc1ccon1)C1CC1 (stereo unspecified) | 56.7% |
| Cc1noc(C)c1CNC(=O)N(C1CC1)C(C)c1ccco1 (stereo unspecified) | -3.98% |
| Cc1cc(CNc2ccc(CC(=O)N(C)c3ccccc3)cc2)no1 | 0.0494% |
| CC(C)c1noc(C(C)S(=O)(=O)Cc2nc(C3CC3)no2)n1 (stereo unspecified) | -4.5% |
| O=C(NCCCN1CCOCC1)c1ccnc(OCc2ccccc2)c1 | -1.25% |
| Cn1ccc2c(C(=O)NCCCN3CCCC3)cccc21 | -3.04% |
| COc1cc(C2(C(=O)NCC(=O)NC3CC3)CC2)ccc1C | -5.44% |
| COc1cc(C2(C(=O)NC3CCC4(CC3)OCCO4)CC2)ccc1C | -4.1% |
| OC(CNCCn1cccn1)COc1ccc(Br)cc1 (stereo unspecified) | -5.72% |
| CC(C)n1cc(CN2CCCN(C(=O)c3cccnc3O)CC2)cn1 | -2.94% |
| CC(C)n1cc(CN2CCCN(C(=O)c3cccn3C)CC2)cn1 | -2.47% |
| CCc1ccc(C(=O)N2CCCC2c2c(C)nn(C)c2OC)o1 (stereo unspecified) | -6.13% |
| COc1c(C2CCCN2C(=O)c2cccn2C)c(C)nn1C (stereo unspecified) | 13.8% |
| COc1c(C2CCCN2C(=O)c2ccnn2C)c(C)nn1C (stereo unspecified) | -4.02% |

| Compound | cytotoxicity at 70.5 h |
| --- | --- |
| CCn1ccnc1CN1CCN(Cc2cccnc2)CC1C (stereo unspecified) | 7.86% |
| CNc1cc(N2CCCC2CNCc2ccc(C)o2)ncn1 (stereo unspecified) | 5.47% |
| CCn1ccnc1CN1CCN(CCc2ccncc2)CC1C (stereo unspecified) | 7.35% |
| O=C(C1CC1)N1CCCC1c1nnc2n1CCCCC2 (stereo unspecified) | 0.772% |
| NC(=O)c1ccc(CN2CCC(N3CCCC3)CC2)cc1 | -2.01% |
| NC(=O)c1cccc(CN2CCOC(Cn3cccn3)C2)c1 (stereo unspecified) | 8.52% |
| CS(=O)(=O)CCn1ccc(NC(=O)CCc2cccc(F)c2)n1 | -3.41% |
| CNc1cc(N2CCCC2CNCc2cccnc2C)ncn1 (stereo unspecified) | 4.98% |
| Cc1cc(F)ccc1CCNC(=O)NCC(C)N1CCOCC1 (stereo unspecified) | 3.68% |
| CC(C)C(NC(=O)NCC1CC1)c1nnc2n1CCC2 (stereo unspecified) | 3.11% |
| CCc1cc(CNC(=O)N2CCN(c3nc(C)c(C)s3)CC2)on1 | -3.25% |
| CC(C)COCCCNC(=O)c1cccnc1N1CCOCC1 | 4.2% |
| Cc1nc(C)n(C2CCCN(C(=O)CCn3cncn3)C2)n1 (stereo unspecified) | -0.0645% |
| Cc1nc(C)n(C2CCCN(C(=O)CCc3cscn3)C2)n1 (stereo unspecified) | 37% |
| Cc1cc(C)n(CC2CN(Cc3ccc4c(c3)OCCO4)CCO2)n1 (stereo unspecified) | -3.91% |
| CCC(CNC1CCN(C(=O)N(C)C)CC1)Oc1ccccc1C (stereo unspecified) | 27.1% |
| CCC(CNC1CCN(C(C)=O)CC1)Oc1ccccc1Cl (stereo unspecified) | 5.02% |
| Cc1cnn(CCNCC(=O)NC2(C#N)CCCC2)c1 | -0.423% |
| Cc1sc2nc(C(F)(F)F)nc(N3CCN(C)CC3)c2c1C | -4.17% |
| CCCc1nc(C)c(C(=O)NC2CCN(c3ncccn3)CC2)s1 | -9.16% |
| N#CC1(NC(=O)COC(=O)Cn2cccn2)CCCC1 | -7.86% |
| OC1CCN(c2ccccc2NCc2nc(-c3cccs3)no2)CC1 | -10.7% |

| Compound | cytotoxicity at 70.5 h |
| --- | --- |
| OC1CCN(c2ccccc2NCc2nc(-c3ccoc3)no2)CC1 | 36.2% |
| CC(NCc1ccncc1)c1cc2c(cc1Br)OCCO2 (stereo unspecified) | -4.83% |
| CC(Cn1cccn1)NCC(=O)NC1(C#N)CCCCC1 (stereo unspecified) | 21.3% |
| CCOC(C)C(=O)N(C)C1CCN(c2ccc(OC)cc2)CC1 (stereo unspecified) | -4.16% |
| O=C(NS(=O)(=O)Cc1ccc(F)cc1)C1CCOc2ccccc21 (stereo unspecified) | -9.19% |
| Cc1ncc2c(n1)CN(Cc1nc3c(F)cccc3[nH]1)CC2 | -2.01% |
| Fc1cccc2[nH]c(CN3CCc4cncnc4C3)nc12 | -7.7% |
| CSC(C)C(=O)N(C)C1CCN(c2ccc(Cl)cc2)CC1 (stereo unspecified) | 2.45% |
| COc1ccc(N2CCC(N(C)C(=O)C(C)SC)CC2)cc1 (stereo unspecified) | -6.26% |
| CCC(CNC(=O)NC1CCN(C)CC1)Oc1ccccc1Cl (stereo unspecified) | 30.5% |
| O=C(NCc1csc2ccccc12)NCC1(O)CCSC1 (stereo unspecified) | -2.26% |
| FC(F)Sc1ccc(NCc2nnc(C3CC3)o2)cc1 | -4.17% |
| COc1ccnc(NC(=O)c2cscn2)c1 | -10.4% |
| CN(Cc1ccc2c(c1)OCO2)Cc1nc(Cc2ccccc2)no1 | -5.91% |
| CCOC(C)c1noc(CN2CCN(c3ccncc3)CC2)n1 (stereo unspecified) | -6.31% |
| CCOC(C)c1noc(CN2CCCNCC2)n1 (stereo unspecified) | -5.58% |
| CCOC(C)c1noc(CN2CCN(Cc3cccnc3)CC2)n1 (stereo unspecified) | 34.3% |
| CCOC(C)c1noc(CN2CCN(Cc3cccc(F)c3)CC2)n1 (stereo unspecified) | -7.41% |
| O=C(CN1CCC[C@H]1C(=O)O)NCCOc1cccc(Cl)c1 | -1.34% |
| CCOC(=O)c1ccccc1NC(=O)CN(C)Cc1ccccc1Cl | 3.31% |

Reference: ChEMBL document CHEMBL3507680, “University of Dundee, Gates Library screen for HepG2 cell viability”
